Reference: patent publication US20060100431A1, “Biologically active compounds” (Amura Therapeutics Limited, priority 2002, published 2006)

Key:
Assay type in all cases: biochemical
human cathepsin B = target: T1, human cathepsin B (Homo sapiens, UniProt P07858); experiment: Cathepsin B peptidase activity assay (Ki); settings: read-out: Ki, inhibitors of cathepsin B
T1 construct: purchased CN Biosciences
Method: Unless otherwise stated, all general chemicals and biochemicals were purchased from either the Sigma Chemical Company, Poole, Dorset, U.K or from Fisher Scientific UK, Loughborough, Leicestershire, U.K. Absorbance assays were carried out in flat-bottomed 96-well plates (Spectra; Greiner Bio-One Ltd., Stonehouse, Gloucestershire, U.K.) using a SpectraMax PLUS384 plate reader (Molecular Devices, Crawley, U.K.). […] Fluorescence assays were monitored using a SpectraMax Gemini fluorescence plate reader (Molecular Devices). For substrates employing either a 7-amino-4-methylcoumarin (AMC) or a 7-amino-4-trifluoromethylcoumarin (AFC) fluorophore, assays were monitored at an excitation wavelength of 365 nm and an emission wavelength of 450 nm and the fluorescence plate reader calibrated with AMC. For substrates employing a 3-amino-benzoyl (Abz) fluorophore, assays were monitored at an excitation wavelength of 310 nm and an emission wavelength of 445 nm; the fluorescence plate reader calibrated with 3-amino-benzamide (Fluka). Unless otherwise indicated, all the peptidase substrates were purchased from Bachem UK, St Helens, Merseyside, UK. […] Hydroxyethylpiperazine ethanesulfonate (HEPES), tris-hydroxylmethyl aminomethane (tris) base, bis-tris-propane and all the biological detergents (e.g. CHAPS, zwittergents, etc.) were purchased from CN Biosciences UK, Beeston, Nottinghamshire, U.K. Glycerol was purchased from Amersham Pharmacia Biotech, Little Chalfont, Buckinghamshire, U.K. Stock solutions of substrate or inhibitor were made up to 10 mM in 100% dimethylsulfoxide (DMSO) (Rathburns, Glasgow, U.K.) and diluted as appropriately required. In all cases the DMSO concentration in the assays was maintained at less than 1% (vol./vol.).
Enzyme was added as required to initiate the reaction and the activity, as judged by the change in fluorescence upon conversion of substrate to product, was monitored over time. All assays were carried out at 25±1° C.
Bovine cathepsin S, human cathepsin L, human cathepsin H and human cathepsin B were obtained from CN Biosciences. Recombinant human cathepsin S, human cathepsin K and human cathepsin X were obtained from Dr. Boris Turk (Josef Stefan Institute, Ljubljana, Slovenia). Unless otherwise stated, all peptidase activity assays were carried out in 10 mM bis-tris-propane (BTP), pH 6.5 containing 1 mM EDTA, 5 mM 2-mercaptoethanol and 1 mM CaCl2.
The apparent inhibition constant (Ki) for each compound was determined on the basis that inhibition was reversible and occurred by a pure-competitive mechanism. […] [formula]
[formula] Ki^app=Ki(1+[So]/KM^app) (4)
Curves were fitted by non-linear regression analysis (Prism) using a fixed value for the enzyme concentration.

Wild-type cruzipain = Wild-type cruzipain (Trypanosoma cruzi, UniProt P25779); experiment: Trypanosoma cruzi cruzipain peptidase activity assay (Ki); settings: read-out: Ki, inhibitors of cruzain and cruzipains
Summary of the method: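 Native cruzipain from T. cruzi Dm28 epimastigotes, 2.5 nM, in 100 mM sodium phosphate pH 6.75 with 1 mM EDTA and 10 mM L-cysteine, 25 °C, DMSO <1%. Rates taken from continuous fluorogenic substrate read; Ki by regression assuming reversible pure-competitive inhibition.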

CPB2.8ΔCTE = target: T2, CPB2.8ΔCTE (Leishmania mexicana, UniProt P36400); experiment: Leishmania mexicana cysteine protease B (CPB) peptidase activity assay (Ki); settings: Ki, inhibitors of Leismania mexicana CPB protease
T2 construct: Wild-type recombinant CPB without the C-terminal extention (i.e. CPB2.8ΔCTE); Dr. Jeremy Mottram (Wellcome Centre for Molecular Parasitology, University of Glasgow)
Summary of the method: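 Recombinant CPB2.8ΔCTE (0.25 nM) was assayed in 100 mM sodium acetate pH 5.5 with 1 mM EDTA, 200 mM NaCl and 10 mM DTT at 25 °C, DMSO <1%, enzyme added to start. Rates were taken from continuous fluorescence slopes; apparent Ki was fitted assuming reversible, pure-competitive inhibition.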

human cathepsin L = target: T3, human cathepsin L (Homo sapiens, UniProt P07711); experiment: Cathepsin L peptidase activity assay (Ki); settings: read-out: Ki, inhibitors of cathepsin L
T3 construct: purchased CN Biosciences
Method: Unless otherwise stated, all general chemicals and biochemicals were purchased from either the Sigma Chemical Company, Poole, Dorset, U.K or from Fisher Scientific UK, Loughborough, Leicestershire, U.K. Absorbance assays were carried out in flat-bottomed 96-well plates (Spectra; Greiner Bio-One Ltd., Stonehouse, Gloucestershire, U.K.) using a SpectraMax PLUS384 plate reader (Molecular Devices, Crawley, U.K.). Fluorescence high throughput assays were carried out in either 384-well microtitre plates (Corning Costar 3705 plates, Fisher Scientific) or 96-well ‘U’ bottomed Microfluor W1 microtitre plates (Thermo Labsystems, Ashford, Middlesex, U.K.). Fluorescence assays were monitored using a SpectraMax Gemini fluorescence plate reader (Molecular Devices). For substrates employing either a 7-amino-4-methylcoumarin (AMC) or a 7-amino-4-trifluoromethylcoumarin (AFC) fluorophore, assays were monitored at an excitation wavelength of 365 nm and an emission wavelength of 450 nm and the fluorescence plate reader calibrated with AMC. For substrates employing a 3-amino-benzoyl (Abz) fluorophore, assays were monitored at an excitation wavelength of 310 nm and an emission wavelength of 445 nm; the fluorescence plate reader calibrated with 3-amino-benzamide (Fluka). Unless otherwise indicated, all the peptidase substrates were purchased from Bachem UK, St Helens, Merseyside, UK. Substrates utilizing fluorescence resonance energy transfer methodology (i.e. FRET-based substrates) were synthesized at Incenta Limited using published methods (Atherton & Sheppard, Solid Phase Peptide Synthesis, IRL Press, Oxford, U.K, 1989) and employed Abz (2-aminobenzoyl) as the fluorescence donor and 3-nitro-tyrosine [Tyr(NO2)] as the fluorescence quencher (Meldal, M. and Breddam, K., Anal. Biochem, 195, 141-147, 1991). Hydroxyethylpiperazine ethanesulfonate (HEPES), tris-hydroxylmethyl aminomethane (tris) base, bis-tris-propane and all the biological detergents (e.g. CHAPS, zwittergents, etc.) were purchased from CN Biosciences UK, Beeston, Nottinghamshire, U.K. Glycerol was purchased from Amersham Pharmacia Biotech, Little Chalfont, Buckinghamshire, U.K. Stock solutions of substrate or inhibitor were made up to 10 mM in 100% dimethylsulfoxide (DMSO) (Rathburns, Glasgow, U.K.) and diluted as appropriately required. In all cases the DMSO concentration in the assays was maintained at less than 1% (vol./vol.).
Assay protocols were based on literature precedent (Table 4; Barrett, A. J., Rawlings, N. D. and Woessner, J. F., 1998, Handbook of Proteolytic Enzymes, Academic Press, London and references therein) and modified as required to suit local assay protocols. Enzyme was added as required to initiate the reaction and the activity, as judged by the change in fluorescence upon conversion of substrate to product, was monitored over time. All assays were carried out at 25±1° C.
Bovine cathepsin S, human cathepsin L, human cathepsin H and human cathepsin B were obtained from CN Biosciences. Recombinant human cathepsin S, human cathepsin K and human cathepsin X were obtained from Dr. Boris Turk (Josef Stefan Institute, Ljubljana, Slovenia). Unless otherwise stated, all peptidase activity assays were carried out in 10 mM bis-tris-propane (BTP), pH 6.5 containing 1 mM EDTA, 5 mM 2-mercaptoethanol and 1 mM CaCl2. Human cathepsin H activity assays were carried out in 10 mM BTP pH 6.5, 142 mM NaCl2, 1 mM CaCl2, 1 mM EDTA, 1 mM DTT, 0.035 mM Zwittergent 3-16. Human cathepsin K assays were carried out in 100 mM sodium acetate; pH 5.5 containing 20 mM L-cysteine and 1 mM EDTA (Bossard, M. J., et. al., J. Biol. Chem., 21, 12517-12524, 1996). Human cathepsin X assays were carried out in 100 mM sodium acetate; pH 5.5 containing 20 mM L-cysteine; 0.05% (w/v) Brij 35 and 1 mM EDTA (Santamaria, I., et. al., J. Biol. Chem., 273, 16816-16823, 1998; Klemencic, J, et al., Eur. J. Biochem., 267, 5404-5412, 2000). […]

Wild-type cruzipain, sequence (P25779 whole entry): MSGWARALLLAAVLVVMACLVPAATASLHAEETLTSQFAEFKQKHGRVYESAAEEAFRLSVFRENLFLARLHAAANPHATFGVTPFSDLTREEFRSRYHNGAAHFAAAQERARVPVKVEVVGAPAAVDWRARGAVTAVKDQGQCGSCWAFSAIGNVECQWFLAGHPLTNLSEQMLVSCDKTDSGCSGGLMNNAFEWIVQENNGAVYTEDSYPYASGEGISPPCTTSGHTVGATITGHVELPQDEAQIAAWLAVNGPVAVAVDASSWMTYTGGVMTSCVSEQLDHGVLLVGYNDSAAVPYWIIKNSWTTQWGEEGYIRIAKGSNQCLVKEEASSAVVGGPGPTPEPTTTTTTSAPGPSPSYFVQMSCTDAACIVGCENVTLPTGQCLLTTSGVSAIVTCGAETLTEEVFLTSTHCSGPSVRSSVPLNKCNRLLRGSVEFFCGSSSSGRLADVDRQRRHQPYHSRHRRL
T3 sequence (P07711 114-333): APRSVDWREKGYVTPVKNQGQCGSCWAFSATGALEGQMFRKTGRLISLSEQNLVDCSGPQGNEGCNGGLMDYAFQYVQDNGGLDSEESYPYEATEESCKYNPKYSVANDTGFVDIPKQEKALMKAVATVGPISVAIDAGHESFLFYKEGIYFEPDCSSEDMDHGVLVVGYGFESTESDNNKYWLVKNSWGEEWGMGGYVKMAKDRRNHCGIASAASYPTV
T2 sequence (P36400 126-343, stated change not applied): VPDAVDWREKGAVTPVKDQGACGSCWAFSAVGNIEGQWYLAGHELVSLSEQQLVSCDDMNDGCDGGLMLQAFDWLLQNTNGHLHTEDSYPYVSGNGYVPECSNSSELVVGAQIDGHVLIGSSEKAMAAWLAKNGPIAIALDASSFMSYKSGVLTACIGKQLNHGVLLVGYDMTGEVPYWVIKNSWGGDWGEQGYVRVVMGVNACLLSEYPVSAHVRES

## CS(=O)(=O)c1ccccc1C(=O)N1CC(=O)[C@@H]2[C@H]1CCN2C(=O)[C@H](CC1CCCCC1)NC(=O)C(c1ccccc1)c1ccccc1 [Example 279, (3aR,6aS)-N-{(1S)-1-Cyclohexylmethyl-2-[4-(2-methanesulfonyl-benzoyl)-6-oxo-hexahydro-pyrrolo[3,2-b]pyrrole-1-yl]-2-oxo-ethyl}-2,2-diphenyl-acetamide]
Human cathepsin B
  Ki: < 5 µM

## CC(=O)N1CCC[C@H]1C(=O)N1CC(=O)[C@@H]2[C@H]1CCN2C(=O)[C@H](CC(C)C)NC(=O)c1ccc(N(C)C)cc1 [Example 216, (3aR,6aS)-N-{(1S)-1-[4-((2S)-1-Acetyl-pyrrolidine-2-carbonyl)-6-oxo-hexahydro-pyrrolo[3,2-b]pyrrole-1-carbonyl]-3-methyl-butyl}-4-dimethylamino-benzamide]
Wild-type cruzipain
  Ki: < 5 µM
CPB2.8ΔCTE
  Ki: < 5 µM
Human cathepsin L
  Ki: < 5 µM

## CC(C)C[C@H](NC(=O)c1cccc(CN)c1)C(=O)N1CC[C@@H]2[C@H]1C(=O)CN2C(=O)Cc1ccccc1 [Example 118, (3aR,6aS)-3-Aminomethyl-N-[(1S)-3-methyl-1-(6-oxo-4-phenylacetyl-hexahydro-pyrrolo[3,2-b]pyrrole-1-carbonyl)-butyl]-benzamide]
Wild-type cruzipain
  Ki: < 5 µM
CPB2.8ΔCTE
  Ki: < 5 µM
Human cathepsin L
  Ki: < 5 µM

## CC(C)C[C@H](NC(=O)c1ccc(Oc2ccccc2)cc1)C(=O)N1CC[C@@H]2[C@H]1C(=O)CN2C(=O)c1ccccc1S(C)(=O)=O [Example 40, (3aR,6aS)-N-{(1S)-1-[4-(2-Methanesulfonyl-benzoyl)-6-oxo-hexahydro-pyrrolo[3,2-b]pyrrole-1-carbonyl]-3-methyl-butyl}-4-phenoxy-benzamide]
Human cathepsin B
  Ki: < 5 µM

## CC(C)C[C@H](NC(=O)c1cccc(CN)c1)C(=O)N1CC[C@@H]2[C@H]1C(=O)CN2C(=O)Cc1ccc(F)cc1 [Example 180, (3aR,6aS)-3-Aminomethyl-N-((1S)-1-{4-[2-(4-fluoro-phenyl)-acetyl]-6-oxo-hexahydro-pyrrolo[3,2-b]pyrrole-1-carbonyl}-3-methyl-butyl)-benzamide]
Wild-type cruzipain
  Ki: < 5 µM
CPB2.8ΔCTE
  Ki: < 5 µM
Human cathepsin L
  Ki: < 5 µM

## CC(C)C[C@H](NC(=O)c1ccc(Oc2ccccc2)cc1)C(=O)N1CC[C@@H]2[C@H]1C(=O)CN2C(=O)c1cccc(S(C)(=O)=O)c1 [Example 41, (3aR,6aS)-N-{(1S)-1-[4-(3-Methanesulfonyl-benzoyl)-6-oxo-hexahydro-pyrrolo[3,2-b]pyrrole-1-carbonyl]-3-methyl-butyl}-4-phenoxy-benzamide]
Human cathepsin B
  Ki: < 5 µM

## CC(C)C[C@H](NC(=O)c1cccc(CN)c1)C(=O)N1CC[C@@H]2[C@H]1C(=O)CN2C(=O)Nc1ccccc1 [Example 175, (3aS,6aR)-4-[(2S)-2-(3-Aminomethyl-benzoylamino)-4-methyl-pentanoyl]-3-oxo-hexahydro-pyrrolo[3,2-b]pyrrole-1-carboxylic acid phenylamide]
Wild-type cruzipain
  Ki: < 5 µM
CPB2.8ΔCTE
  Ki: < 5 µM
Human cathepsin L
  Ki: < 5 µM

## CC(C)C[C@H](NC(=O)c1ccc([N+](C)(C)[O-])cc1)C(=O)N1CC[C@@H]2[C@H]1C(=O)CN2C(=O)c1ccccc1 [Example 117, (3aR,6aS)-N-[(1S)-1-(4-Benzoyl-6-oxo-hexahydro-pyrrolo[3,2-b]pyrrole-1-carbonyl)-3-methyl-butyl]-4-(N-oxy-dimethylamino)-benzamide]
Wild-type cruzipain
  Ki: < 5 µM
CPB2.8ΔCTE
  Ki: < 5 µM
Human cathepsin L
  Ki: < 5 µM

## Cc1cc(C)cc(C(=O)N2CC(=O)[C@@H]3[C@H]2CCN3C(=O)[C@H](CC(C)C)NC(=O)c2ccc(N(C)C)cc2)c1 [Example 111, (3aR,6aS)-4-Dimethylamino-N-{(1S)-1-[4-(3,5-dimethyl-benzoyl)-6-oxo-hexahydro-pyrrolo[3,2-b]pyrrole-1-carbonyl]-3-methyl-butyl}-benzamide]
Wild-type cruzipain
  Ki: < 5 µM
CPB2.8ΔCTE
  Ki: < 5 µM
Human cathepsin L
  Ki: < 5 µM

## CC(C)C[C@H](NC(=O)c1ccc(N(C)C)cc1)C(=O)N1CC[C@@H]2[C@H]1C(=O)CN2C(=O)c1cccc(F)c1 [Example 63, (3aR,6aS)-4-Dimethylamino-N-{(1S)-1-[4-(3-fluoro-benzoyl)-6-oxo-hexahydro-pyrrolo[3,2-b]pyrrole-1-carbonyl]-3-methyl-butyl}-benzamide]
Wild-type cruzipain
  Ki: < 5 µM
CPB2.8ΔCTE
  Ki: < 5 µM
Human cathepsin L
  Ki: < 5 µM

## CC(C)C[C@H](NC(=O)c1cccc(CN)c1)C(=O)N1CC[C@@H]2[C@H]1C(=O)CN2C(=O)[C@@H](N)CC(C)C [Example 246, (3aR,6aS)-3-Aminomethyl-N-{(1S)-1-[4-((2S)-2-amino-4-methyl-pentanoyl)-6-oxo-hexahydro-pyrrolo[3,2-b]pyrrole-1-carbonyl)-3-methyl-butyl}-benzamide]
Wild-type cruzipain
  Ki: < 5 µM
CPB2.8ΔCTE
  Ki: < 5 µM
Human cathepsin L
  Ki: < 5 µM
